By inhibition is commonly meant the relative decrease from the control value, in per cent.

Results on 16 compounds are retold here after patent publication US4737518A, “Lipid derivatives, their production and use” (Takeda Chemical Industries, Ltd., priority 1984, dated 1988).

One experiment has as its system HL-60 cells. In words: Effect on inducing differentiation of HL-60 cells (NBT-positive cells). In kind it is cell-based, human. The following applies: 6 days; for Emax: Homo sapiens, HL-60, 144 h, at optimal conc., NBT-positive relative to live cells, read-out: Maximum differentiation extent: Differentiation. The protocol: Assay of the effects on inducing differentiation of HL-60 cells (human promyelocytic leukemia cells) and Neuro-2a cells (mouse neuroblastoma cells): RPMI-1640 medium (Flow Laboratories, Inc.) supplemented with 20% fetal calf serum (M.A. […] The culture was incubated at 37° C. in a 5% CO2 incubator for 6 days. […] The reaction was allowed to proceed at 37° C. for 20 minutes. The reaction was stopped by cooling with ice, and the cells were washed by means of centrifugation, followed by collecting 3-5×10^4 cells and by subjecting to centrifugation using Cytospin centrifuge to prepare a cell smear, which was fixed with methanol and stained with Kernechtrot solution. On each cell smear, the percentage of NBT-positive cells relative to live cells, […] by examination of a minimum of 200 cells, was expressed as the differentiation extent.

Experiment [1] has as its system rabbit platelet aggregation by PAF. The experiment can be described thus: Inhibitory activity on rabbit platelet aggregation by PAF. In kind it is cell-based. To be noted: Oryctolagus cuniculus, PAF 1×10^-8 M, read-out: rate of inhibition of rabbit platelet aggregation by PAF; for inhibition at 30 µM: test drug 3 × 10^-5 M; for inhibition at 3 µM: test drug 3 × 10^-6 M; for inhibition at 0.3 µM: test drug 3 × 10^-7 M; for inhibition at 0.03 µM: test drug 3 × 10^-8 M.

A further experiment deals with PAF-induced hypotension. In words: Inhibitory activity against PAF-induced hypotension in rats. The class given is in vivo, rat (male Spraque-Dawley). The following applies: PAF 0.3 μg/kg i.v. The protocol:
Inhibitory activity against PAF-induced hypotension in rats
Male Spraque-Dawley rats, with a body weight of about 400 g, were used under pentobarbital sodium (50 mg/kg, intravenous administration) anesthesia. A cannula was inserted into the femoral artery and secured in position for measurement of blood pressure and another cannula into the femoral vein for administration of a solution of the drug. The blood pressure was measured via a pressure transducer and recorded on a polygraph. First, 0.3 μg/kg of PAF was administered intravenously and the hypotensive response was recorded.
The inhibitory activity against PAF-induced hypotension was estimated from the rate of PAF-induced hypotensive response (Δ mmHg) after the drug administration to hypotensive response (Δ mmHg) by PAF before the drug administration.

With `CCCCCCCCCCCCCCCCCCNC(=O)OCC(CNC(=O)N(Cc1cccc[n+]1C)C(C)=O)OC.[Cl-]` (stereo not shown) [Example 106, 1-Methyl-2-[N-acetyl-N'-(3-octadecylcarbamoyloxy-2-methoxypropyl)ureido]methylpyridinium chloride], in the experiment with HL-60 cells, the “Maximum differentiation extent: Optimal conc.” value (“Maximum differentiation extent” for short) was determined as 1.88 µg/mL and the Emax turned out to be 78%.

For the compound `CCCCCCCCCCCCCCCCCCNC(=O)OCC(CN1CC(=O)N(CC[N+](C)(C)C)C1=O)OC` (stereo not shown) [Example 115, 1-[(2-Methoxy-3-octadecylcarbamoyloxy)propyl]-3-[2-(trimethylammonio)ethyl]hydantoin chloride], in the experiment on HL-60 cells, the “Maximum differentiation extent” value was 1.25 µg/mL and the Emax is 61%. Further, in experiment [1], the inhibition at 30 µM worked out at 100%, the inhibition at 3 µM was determined as 100% and the inhibition at 0.3 µM was 9%.

`CCCCCCCCCCCCCCCCCCNC(=O)OCC(COC(=O)N(Cc1cccc[n+]1C)C(C)=O)OCC` (stereo not shown) [Example 116]: in the experiment on PAF-induced hypotension (1 mg/kg i.v., after 5 min), the Restoration rate is 100%. Besides, in the experiment with PAF-induced hypotension (1 mg/kg i.v., after 60 min), the Restoration rate worked out at 77%. Besides, in experiment [1], the inhibition at 30 µM was found to be 100%, the inhibition at 3 µM was 100% and the inhibition at 0.3 µM turned out to be 100%.

The compound `CCCCCCCCCCCCCCCCCCNC(=O)OCC(COC(=O)N(Cc1cccc[n+]1CC)C(C)=O)OCC` (stereo not shown) [Example 117] showed a Restoration rate in the experiment on PAF-induced hypotension (1 mg/kg i.v., after 5 min) of 100%. In the experiment on PAF-induced hypotension (1 mg/kg i.v., after 60 min), this compound displayed a Restoration rate of 100%. In experiment [1], the inhibition at 3 µM amounted to 100% and the inhibition at 0.3 µM is 100%.

In the experiment on PAF-induced hypotension (1 mg/kg i.v., after 5 min), `CCCCCCCCCCCCCCCCCCNC(=O)OCC(COC(=O)N(Cc1scc[n+]1C)C(C)=O)OC.[I-]` (stereo not shown) [Example 142, 2-[N-Acetyl-N-(3-octadecylcarbamoyloxy-2-methoxypropoxycarbonyl)amino]methyl-3-methylthiazolium iodide] displayed a Restoration rate of 100%. In the experiment on PAF-induced hypotension (1 mg/kg i.v., after 60 min), this compound had a Restoration rate of 100%. In experiment [1], the inhibition at 30 µM came out at 100%, the inhibition at 3 µM is 100%, the inhibition at 0.3 µM was determined as 100% and the inhibition at 0.03 µM came to 25%.

In turn, `CCCCCCCCCCCCCCCCCCNC(=O)OCC(COC(=O)N(Cc1scc[n+]1CC)C(C)=O)OC.[I-]` (stereo not shown) [Example 143, 2-[N-Acetyl-N-(3-octadecylcarbamoyloxy-2-methoxypropoxycarbonyl)amino]methyl-3-ethylthiazolium iodide] displayed a Restoration rate in the experiment with PAF-induced hypotension (1 mg/kg i.v., after 5 min) of 100%. In the experiment with PAF-induced hypotension (1 mg/kg i.v., after 60 min), this compound displayed a Restoration rate of 100%. Also, in experiment [1], the inhibition at 3 µM was determined as 100% and the inhibition at 0.3 µM was determined as 100%.

As to `CCCCCCCCCCCCCCCCCCNC(=O)OCC(COC(=O)N(Cc1scc[n+]1CCC)C(C)=O)OC` (stereo not shown) [Example 144, 2-[N-Acetyl-N-(3-octadecylcarbamoyloxy-2-methoxypropoxycarbonyl)amino]methyl-3-propylthiazolium iodide], in experiment [1], the inhibition at 3 µM was 100%, the inhibition at 0.3 µM came out at 100% and the inhibition at 0.03 µM was determined as 9%.

For the compound `CCCCCCCCCCCCCCCCCCNC(=O)OCC(COC(=O)N(Cc1scc[n+]1CCCC)C(C)=O)OC` (stereo not shown) [Example 145, 2-[N-Acetyl-N-(3-octadecylcarbamoyloxy-2-methoxypropoxycarbonyl)amino]methyl-3-butylthiazolium iodide], in experiment [1], the inhibition at 3 µM was determined as 100% and the inhibition at 0.3 µM is 100%.

As to `CCCCCCCCCCCCCCCCCCNC(=O)OCC(COC(=O)N(Cc1csc[n+]1C)C(C)=O)OC` (stereo not shown) [Example 148, 4-[N-Acetyl-N-(3-octadecylcarbamoyloxy-2-methoxypropoxycarbonyl)amino]methyl-3-methylthiazolium iodide], in experiment [1], the inhibition at 3 µM was 100% and the inhibition at 0.3 µM worked out at 42%.

For `CCCCCCCCCCCCCCCCCCNC(=O)OCC(COC(=O)N(Cc1csc[n+]1CC)C(C)=O)OC.[I-]` (stereo not shown) [Example 149, 4-[N-Acetyl-N-(3-octadecylcarbamoyloxy-2-methoxypropoxycarbonyl)amino]methyl-3-ethylthiazolium iodide], the Restoration rate in the experiment on PAF-induced hypotension (0.1 mg/kg i.v., after 5 min) is 100%; in the experiment with PAF-induced hypotension (0.1 mg/kg i.v., after 60 min), 39%; in the experiment on PAF-induced hypotension (1 mg/kg i.v., after 5 min), 100%; in the experiment on PAF-induced hypotension (1 mg/kg i.v., after 60 min), 100%. The inhibition at 3 µM in experiment [1] came to 100%. Further, the inhibition at 0.3 µM in experiment [1] was found to be 100%. Besides, the inhibition at 0.03 µM in experiment [1] came out at 78%.

As to `CCCCCCCCCCCCCCCCCCNC(=O)OCC(COC(=O)N(C(C)=O)C1CCC[N+](C)(CC)C1)OC` (stereo not shown) [Example 161, 3-[N-Acetyl-N-(3-octadecylcarbamoyloxy-2-methoxypropoxycarbonyl)]amino-1-ethyl-1-methylpiperidinium chloride], in experiment [1], the inhibition at 30 µM was determined as 100%, the inhibition at 3 µM was 100% and the inhibition at 0.3 µM came out at 6%.

For the compound `CCCCCCCCCCCCCCCCNC(=O)OCC(COC(=O)N(Cc1cccc[n+]1CC)C(C)=O)OC` (stereo not shown) [Example 169, 3-[N-Acetyl-N-(N'-ethylpyridinio-2-yl)methyl]carbamoyl-1-hexadecylcarbamoyl-2-methylglycerol chloride], in the experiment with HL-60 cells, the “Maximum differentiation extent” value amounted to 0.32 µg/mL and the Emax was determined as 59%. In experiment [1], the inhibition at 30 µM came out at 100%, the inhibition at 3 µM was 100% and the inhibition at 0.3 µM stood at 100%.

Turning to `CCCCCCCCCCCCCCNC(=O)OCC(COC(=O)N(Cc1cccc[n+]1CC)C(C)=O)OC` (stereo not shown) [Example 170, 3-[N-Acetyl-N-(N'-ethylpyridinio-2-yl)methyl]carbamoyl-2-methyl-1-tetradecylcarbamoylglycerol chloride], in the experiment on HL-60 cells, the “Maximum differentiation extent” value was determined as 0.32 µg/mL and the Emax amounted to 77%. In experiment [1], the inhibition at 30 µM is 100%, the inhibition at 3 µM came out at 100% and the inhibition at 0.3 µM was found to be 100%.

Turning to `CCCCCCCCCCCCCCCCCCNC(=O)OCC(COC(=O)N(Cc1cccc[n+]1CCC)C(C)=O)OC` (stereo not shown) [Example 173, 3-[N-Acetyl-N-(N'-propylpyridinio-2-yl)methyl]carbamoyl-1-octadecylcarbamoyl-2-methylglycerol chloride], in experiment [1], the inhibition at 30 µM worked out at 100%, the inhibition at 3 µM was 100% and the inhibition at 0.3 µM was 100%.

As for `C=CC[n+]1ccccc1CN(C(C)=O)C(=O)OCC(COC(=O)NCCCCCCCCCCCCCCCCCC)OC` (stereo not shown) [Example 174, 3-[N-Acetyl-N-(N'-allylpyridinio-2-yl)methyl]carbamoyl-1-octadecylcarbamoyl-2-methylglycerol chloride], in experiment [1], the inhibition at 30 µM was determined as 100%, the inhibition at 3 µM came to 100% and the inhibition at 0.3 µM was 100%.

As to `CCCCCCCCCCCCCCCCCCNC(=O)OCC(COC(=O)N(Cc1cccc[n+]1CCCC)C(C)=O)OC` (stereo not shown) [Example 177, 3-[N-Acetyl-N-(N'-butylpyridinio-2-yl)methyl]carbamoyl-1-octadecylcarbamoyl-2-methylglycerol chloride], in the experiment with HL-60 cells, the “Maximum differentiation extent” value worked out at 0.48 µg/mL and the Emax was 91%.
